Source: patent US6399577B1, “Compositions and methods using myelin-associated glycoprotein (MAG) and inhibitors thereof” (Research Foundation of CUNY, Hunter College, priority 1995, dated 2002)

Key:
[1] = biological target: T1, MAG (Rattus norvegicus, UniProt P07722); assay: Neurite outgrowth of DRG neurons on MAG-expressing and control CHO cells: reversal of promotion by MAG; format: cell-based; details: for % Reversal of Promotion: PND 2 DRG neurons; for effect on the promotion of neurite outgrowth by MAG: increasing concentrations of sugar, text summary of TABLE 2
T1 construct: host or cells: dhfr-deficient CHO cells (CHO-MAG2)
T1 sequence (P07722 20-626): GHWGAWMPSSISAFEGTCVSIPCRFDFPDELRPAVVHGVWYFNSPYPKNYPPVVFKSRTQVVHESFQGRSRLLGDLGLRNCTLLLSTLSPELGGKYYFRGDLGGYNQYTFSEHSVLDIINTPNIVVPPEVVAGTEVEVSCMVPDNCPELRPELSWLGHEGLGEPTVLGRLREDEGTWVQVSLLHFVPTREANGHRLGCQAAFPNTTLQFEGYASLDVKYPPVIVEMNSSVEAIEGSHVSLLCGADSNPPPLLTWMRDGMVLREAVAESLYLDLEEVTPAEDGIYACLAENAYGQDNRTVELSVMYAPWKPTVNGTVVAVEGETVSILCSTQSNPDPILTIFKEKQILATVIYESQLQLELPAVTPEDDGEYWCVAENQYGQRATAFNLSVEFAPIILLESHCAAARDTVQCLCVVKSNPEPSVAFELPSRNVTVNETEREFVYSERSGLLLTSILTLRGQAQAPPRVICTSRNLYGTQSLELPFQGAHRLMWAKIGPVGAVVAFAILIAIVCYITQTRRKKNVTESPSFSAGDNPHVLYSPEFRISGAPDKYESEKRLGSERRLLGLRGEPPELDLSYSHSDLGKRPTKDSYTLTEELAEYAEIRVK
Procedure: (§1) Confluent monolayers of control and MAG-expressing CHO cells were established over a 24-hour (h) period in individual chambers of an 8-well tissue culture slide (Lab-Tek). […] Culture medium was SATO containing 2% FCS. Where indicated, 20 mU of VCS was included throughout the coculture period (see Example 4), or monolayers were incubated with small oligosaccharides for one hour before adding the neuronal cell suspension and included throughout the coculture period. After periods of time as indicated, the cocultures were fixed for 30 min with 4% paraformaldehyde and permeabilized with ice-cold methanol for 2 min. The cells were then blocked for 30 min with DMEM containing 10% FCS and incubated for 2 h with a rabbit polyclonal antibody against the neuronal marker GAP43 (1:4000). Cells were washed three times with PBS-BSA (2%) and then incubated for 30 min at room temperature with a biotinylated donkey anti-rabbit Ig (1:300, Amersham), washed three times, and incubated with streptavidin-conjugated Texas Red (1:300, Amersham) for 30 min. After three more washes, the slides were mounted in Permfluor (Baxter) and viewed with a Zeiss fluorescent microscope. The length of the longest neurite for each GAP43-positive neuron was determined using the Biological Detection System image analysis program (Pittsburgh).
The transfected CHO cell assay described in Example 2 may also be used to screen and identify agents that alter neurite growth properties of a particular neuronal cell type and age in a MAG-dependent fashion. Neurite outgrowth was compared for cerebellar (TABLE 1) and DRG (TABLE 2) neurons from PND 2 animals, grown on MAG-expressing and control CHO cells as described in Example 2. Where indicated, small sialic acid-bearing sugars were included in the co-cultures at increasing concentrations. 100% inhibition was taken as the difference in length of neurites on control and MAG-expressing CHO cells. Results are the mean of at least two experiments, with at least 150 neurons measured for each experiment. DD-NANA=2,3-dideoxy sialic acid; SL=sialo 2,3-α lactose.
Single cell suspensions of different neurons at various postnatal ages were washed and resuspended in phosphate-buffered saline (PBS). Approximately 2×10^6 cells were incubated with 50 mU of Vibrio cholera sialidase (VCS, Calbiochem) (a neuraminidase) in a final volume of 0.5 ml for 2 hours at 37° C. Neurons were washed with PBS and resuspended in SATO medium containing 2% FCS for neurite outgrowth experiments, or in PBS for neurite binding assays.

[2] = biological target: T2, MAG (Rattus norvegicus, UniProt P07722); assay: Radiolabelled MAG-Fc binding to cerebellar neurons; details: PND1 cerebellar neurons; antibody 5 μg/ml or sialidase treatment of neurons before binding
T2 construct: consisting of the extracellular domain of MAG fused to the Fc region of IgG (MAG-Fc); host or cells: COS cells
T2 sequence (P07722 20-516 limits assumed): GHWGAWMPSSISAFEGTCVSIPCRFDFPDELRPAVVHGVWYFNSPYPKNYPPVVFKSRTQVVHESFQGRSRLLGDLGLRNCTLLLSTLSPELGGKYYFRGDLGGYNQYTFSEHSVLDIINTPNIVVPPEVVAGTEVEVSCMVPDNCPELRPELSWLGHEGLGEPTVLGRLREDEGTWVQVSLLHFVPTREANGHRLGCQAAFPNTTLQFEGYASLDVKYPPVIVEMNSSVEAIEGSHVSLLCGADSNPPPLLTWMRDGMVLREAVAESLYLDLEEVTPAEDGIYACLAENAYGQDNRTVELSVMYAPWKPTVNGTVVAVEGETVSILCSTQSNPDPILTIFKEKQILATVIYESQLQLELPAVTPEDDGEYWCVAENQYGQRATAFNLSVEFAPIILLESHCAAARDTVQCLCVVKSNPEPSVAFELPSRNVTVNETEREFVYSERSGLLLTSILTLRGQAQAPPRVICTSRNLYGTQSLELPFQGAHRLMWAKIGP
Procedure: FIG. 4. sialic acid-dependent Binding of MAG to Cerebellar and DRG Neurons. Radiolabelled MAG-Fc (solid bars) was allowed to bind to PND 1 cerebellar and DRG neurons. Incubations were also carried out in the presence of 5 μg/ml of MAG 513 monoclonal antibody (dark hatched bars) or with neurons that had been desialyated (speckled bars). Each experiment was carried out in quadruplicate. The results are the mean of 3 experiments.
MAG binds to all types of neurons tested in a sialic acid-dependent fashion (Kelm et al., Curr. Biol., 4, pp. 965-72 (1994)). […] Sialidase is an enzyme which removes sialic acid from glycoconjugates.

[3] = system: cerebellar neurons; assay: Neurite outgrowth of cerebellar neurons on MAG-expressing versus control CHO cells; format: cell-based, rat; details: all ages tested, four MAG-expressing CHO cell lines
Procedure: FIG. 1. Inhibition of Neurite outgrowth from Cerebellar Neurons by MAG. Cerebellar neurons from post-natal day (PND) 1, 4 and 7 were grown overnight on a monolayer of MAG-expressing (clear bars) or control transfected CHO cells (hatched bars). Neurons were stained for GAP-43 antigen and neurite length was measured and the average […] length calculated from at least 150 measurements (+/−SEM).
as §1, with “Cells were washed three times with PBS-BSA (2%) and then incubated for 30 min at room temperature with a biotinylated donkey anti-rabbit Ig (1:300, Amersham), washed three times, and incubated with streptavidin-conjugated Texas Red (1:300, Amersham) for 30 min. After three more washes, the slides were mounted in Permfluor (Baxter) and viewed with a Zeiss fluorescent microscope.” left out

[4] = system: DRG neurons; assay: Neurite outgrowth of DRG neurons on MAG-expressing versus control CHO cells; format: cell-based, rat
Procedure: FIG. 2. Effect of MAG on Neurite Outgrowth from DRG Neurons of Different Ages. […] 1.
as §1

[5] = system: retinal ganglion (RG), hippocampal (HN), motor neurons (MN) and superior-cervical ganglion (SCG); assay: Neurite outgrowth of different neuronal cell types on MAG-expressing versus control CHO cells; format: cell-based, rat; details: neurons from one-day old rats (PND1)
Procedure: FIG. 3. Effect of MAG on Neurite Outgrowth from Different Neuronal Cell Types. Various neurons from PND1 animals were isolated and grown overnight on MAG-expressing (dark hatched) or control (light hatched) CHO cells. Average neurite length was calculated as described in FIG. 1.
as §1, with “Cells were washed three times with PBS-BSA (2%) and then incubated for 30 min at room temperature with a biotinylated donkey anti-rabbit Ig (1:300, Amersham), washed three times, and incubated with streptavidin-conjugated Texas Red (1:300, Amersham) for 30 min. After three more washes, the slides were mounted in Permfluor (Baxter) and viewed with a Zeiss fluorescent microscope.” left out

[6] = system: cerebellar neurons; details: Mukhopadhyay et al.; cited from earlier work
[7] = 1 mM sugar, MAG-expressing CHO cells

Molecule: sialidase: Vibrio cholera sialidase (a neuraminidase), enzyme which removes sialic acid from glycoconjugates
- effect on promotion of axonal outgrowth by MAG ([1]; newborn (PND1) DRG neurons desialyated with sialidase): completely abolished
- effect on binding of MAG to cerebellar neurons [2]: abolished

Molecule: CC(=O)N[C@H]1[C@H]([C@H](O)[C@H](O)CO)O[C@@](O[C@H]2[C@@H](O)[C@@H](CO)O[C@@H](O[C@H]3[C@H](O)[C@@H](O)C(O)O[C@@H]3CO)[C@@H]2O)(C(=O)O)C[C@@H]1O (stereo partly drawn) [SL, sialo 2,3-α lactose]
- % Reversal of Promotion [1, 7]: 0%
- % Reversal of Promotion ([1]; 5 mM sugar, MAG-expressing CHO cells): 96%
- % Reversal of Promotion ([1]; 18 mM sugar, MAG-expressing CHO cells): 98%
- % Reversal of Promotion ([1]; 18 mM sugar, control CHO cells): 0%
- effect on the promotion of neurite outgrowth by MAG [1]: abolished the promotion of neurite outgrowth by MAG completely

Molecule: CC(=O)N[C@H]1[C@H]([C@H](O)[C@H](O)CO)OC(C(=O)O)=C[C@@H]1O [DD NANA, 2,3-dideoxy sialic acid]
- % Reversal of Promotion [1, 7]: 0%
- % Reversal of Promotion ([1]; 10 mM sugar, MAG-expressing CHO cells): 51%
- % Reversal of Promotion ([1]; 20 mM sugar, MAG-expressing CHO cells): 97%
- % Reversal of Promotion ([1]; 20 mM sugar, control CHO cells): 0%
- effect on the promotion of neurite outgrowth by MAG [1]: abolished the promotion of neurite outgrowth by MAG completely

B1: MAG: myelin-associated glycoprotein expressed on the surface of transfected CHO cells (protein, UniProt P07722 20-626, looked up)
Myelin-associated glycoprotein: GHWGAWMPSSISAFEGTCVSIPCRFDFPDELRPAVVHGVWYFNSPYPKNYPPVVFKSRTQVVHESFQGRSRLLGDLGLRNCTLLLSTLSPELGGKYYFRGDLGGYNQYTFSEHSVLDIINTPNIVVPPEVVAGTEVEVSCMVPDNCPELRPELSWLGHEGLGEPTVLGRLREDEGTWVQVSLLHFVPTREANGHRLGCQAAFPNTTLQFEGYASLDVKYPPVIVEMNSSVEAIEGSHVSLLCGADSNPPPLLTWMRDGMVLREAVAESLYLDLEEVTPAEDGIYACLAENAYGQDNRTVELSVMYAPWKPTVNGTVVAVEGETVSILCSTQSNPDPILTIFKEKQILATVIYESQLQLELPAVTPEDDGEYWCVAENQYGQRATAFNLSVEFAPIILLESHCAAARDTVQCLCVVKSNPEPSVAFELPSRNVTVNETEREFVYSERSGLLLTSILTLRGQAQAPPRVICTSRNLYGTQSLELPFQGAHRLMWAKIGPVGAVVAFAILIAIVCYITQTRRKKNVTESPSFSAGDNPHVLYSPEFRISGAPDKYESEKRLGSERRLLGLRGEPPELDLSYSHSDLGKRPTKDSYTLTEELAEYAEIRVK
- inhibition of neurite outgrowth compared to control cells [3]: at least 70%
- inhibition of neurite outgrowth ([4]; DRG neurons from adult rats): about 40%
- neurite length on MAG-expressing cells compared to control cells ([4]; DRG neurons from two-day old rats): almost twice as long
- effect on neurite growth [5]: potent inhibitor of neurite growth in all cell types tested

B2: Po: another myelin protein expressed by CHO cells, specificity control (protein, UniProt P25189 30-248, looked up)
Myelin protein P0: IVVYTDREVHGAVGSRVTLHCSFWSSEWVSDDISFTWRYQPEGGRDAISIFHYAKGQPYIDEVGTFKERIQWVGDPRWKDGSIVIHNLDYSDNGTFTCDVKNPPDIVGKTSQVTLYVFEKVPTRYGVVLGAVIGGVLGVVLLLLLLFYVVRYCWLRRQAALQRRLSAMEKGKLHKPGKDASKRGRQTPVLYAMLDHSRSTKAVSEKKAKGLGESRKDKK
- effect on neurite outgrowth of CHO cells expressing the protein [6]: lack of effect
